Measured values as given in patent EP4711369A1, “1H-[1,2,3]TRIAZOLO[4,5-H]QUINAZOLINE COMPOUNDS AS PROTEIN KINASE INHIBITORS” (Chengdu Cynogen Bio-Pharmaceutical Technology Co., Ltd., priority 2023, dated 2024).

Legend:
CDK2/cyclin E = CDK2/cyclin E (Homo sapiens, UniProt P24941); assay: Assay of kinase activity (ADP-Glo); type: biochemical; conditions: kinase inhibitory activity, read-out: CDK2/E1 IC50
Description: (§1) CDK/cyclin catalyzes the phosphorylation of a substrate, which concomitantly consumes ATP and produces ADP. The inhibition rate (%) in the presence of a small molecule inhibitor was assessed by measuring the amount of ADP generated in the reaction. The assay compounds were thoroughly mixed by vortexing and then diluted in DMSO to 100× the assay concentration. […] A 2× kinase solution was prepared using a 1× kinase reaction buffer (50 mM Hepes, 10 mM MgCl2, 0.01% Brij35, 2 mM DTT). 2 µL of the kinase solution was transferred to the 384-well assay plate, and the plate was centrifuged at 1000 rpm for 60 seconds in a microplate centrifuge. The plate was incubated at 25 °C in a biochemical incubator for 10 minutes. A 2x mixture of substrate and ATP was prepared in the kinase reaction buffer. Then, 2 µL of the mixture of substrate and ATP was added to the 384-well assay plate. The plate was centrifuged at 1000 rpm for 60 seconds in a microplate centrifuge, and incubated at 25 °C in a biochemical incubator for 60 minutes. 4 µL of ADP-Glo Reagent (Cat. No. V9103, manufacturer: Promega) incubated at 25 °C in a biochemical incubator was added to each well of the 384-well assay plate. The plate was centrifuged at 1000 rpm for 60 seconds in a microplate centrifuge, and incubated at 25 °C in a biochemical incubator for 40 minutes. 8 µL of Detection Reagent incubated at 25 °C in a biochemical incubator was added to each well of the 384-well assay plate. The plate was centrifuged at 1000 rpm for 60 seconds in a microplate centrifuge, and incubated at 25 °C in a biochemical incubator for 40 minutes. Finally, luminescence signals were read using a multifunctional microplate reader (model: PHERAstar FSX, manufacturer: BMG). IC50 values were calculated by nonlinear fitting of the concentration-response curves using GraphPad Prism software.

CDK4/cyclin D1 = CDK4/cyclin D1 (Homo sapiens, UniProt P11802); assay: Assay of kinase activity (ADP-Glo); type: biochemical; conditions: kinase inhibitory activity
Description: as §1

CDK6/cyclin D3 = CDK6/cyclin D3 (Homo sapiens, UniProt Q00534); assay: Assay of kinase activity (ADP-Glo); type: biochemical; conditions: kinase inhibitory activity
Description: (§2) CDK/cyclin catalyzes the phosphorylation of a substrate, which concomitantly consumes ATP and produces ADP. The inhibition rate (%) in the presence of a small molecule inhibitor was assessed by measuring the amount of ADP generated in the reaction. The assay compounds were thoroughly mixed by vortexing and then diluted in DMSO to 100× the assay concentration. 40 nL of a compound was transferred to a 384-well assay plate using a nanoliter pipetting system (ECHO® 655 SYSTEM). A 2× kinase solution was prepared using a 1× kinase reaction buffer (50 mM Hepes, 10 mM MgCl2, 0.01% Brij35, 2 mM DTT). 2 µL of the kinase solution was transferred to the 384-well assay plate, and the plate was centrifuged at 1000 rpm for 60 seconds in a microplate centrifuge. The plate was incubated at 25 °C in a biochemical incubator for 10 minutes. A 2x mixture of substrate and ATP was prepared in the kinase reaction buffer. Then, 2 µL of the mixture of substrate and ATP was added to the 384-well assay plate. The plate was centrifuged at 1000 rpm for 60 seconds in a microplate centrifuge, and incubated at 25 °C in a biochemical incubator for 60 minutes. 4 µL of ADP-Glo Reagent (Cat. No. V9103, manufacturer: Promega) incubated at 25 °C in a biochemical incubator was added to each well of the 384-well assay plate. The plate was centrifuged at 1000 rpm for 60 seconds in a microplate centrifuge, and incubated at 25 °C in a biochemical incubator for 40 minutes. 8 µL of Detection Reagent incubated at 25 °C in a biochemical incubator was added to each well of the 384-well assay plate. The plate was centrifuged at 1000 rpm for 60 seconds in a microplate centrifuge, and incubated at 25 °C in a biochemical incubator for 40 minutes. Finally, luminescence signals were read using a multifunctional microplate reader (model: PHERAstar FSX, manufacturer: BMG). IC50 values were calculated by nonlinear fitting of the concentration-response curves using GraphPad Prism software.

CDK9/cyclin T1 = CDK9/cyclin T1 (Homo sapiens, UniProt P50750); assay: Assay of kinase activity (ADP-Glo); type: biochemical; conditions: kinase inhibitory activity
Description: as §2

[1] = system: human acute myeloid leukemia MV-4-11 cells; assay: Assay of cell proliferation (CellTiter-Glo); type: cell-based; conditions: MV4-11, 144 h, 6 days, read-out: MV-4-11 IC50 of cell proliferation inhibitory activity
Description: (§3) Human ovarian cancer OVCAR3 cells were inoculated at 2000 cells/well in a 96-well plate and cultured in RPMI 1640 medium containing 20% FBS at 37 °C and 5% CO2 overnight in an incubator. The next day, the compounds were subjected to a three-fold gradient dilution in DMSO from a peak concentration of 2 mM to give nine concentrations. Then, the compounds were diluted 3:200 in growth medium, and finally diluted 1:3 in the cell culture supernatant to give a culture supernatant containing 0.5% DMSO, with the compounds treatment concentrations ranging from 10 µM to 0.1 nM. The cells and the compounds were incubated at 37 °C and 5% CO2 for 6 days. Then, cell proliferation assay was performed using the CellTiter-Glo (manufacturer: Promega, Cat. No. G9242), and luminescence signals were read using a multifunctional microplate reader (model: Synergy H1, manufacturer: BiotTek). IC50 values were calculated by fitting of the concentration-response curves with a four-parameter analysis method using GraphPad Prism software.
(§4) The cell proliferation assays of human colon cancer HCT-116 cells, human breast cancer MCF-7 cells, human breast cancer HCC1806 cells, human acute myeloid leukemia MV-4-11 cells, and human gastric cancer MKN1 cells were performed according to the same method, with different inoculation densities set according to different cell growth characteristics.

[2] = system: human breast cancer HCC1806 cells; assay: Assay of cell proliferation (CellTiter-Glo); type: cell-based; conditions: Homo sapiens, 144 h, 6 days, read-out: HCC1806 IC50 of cell proliferation inhibitory activity
Description: as §3, §4

[3] = system: human gastric cancer MKN1 cells; assay: Assay of cell proliferation (CellTiter-Glo); type: cell-based; conditions: Homo sapiens, MKN-1, 144 h; MNK1, 6 days; read-out: MKN1 IC50 of cell proliferation inhibitory activity
Description: as §3, §4

[4] = system: Human ovarian cancer OVCAR3 cells; assay: Assay of cell proliferation (CellTiter-Glo); type: cell-based; conditions: Homo sapiens, OVCAR-3, 144 h, 6 days, read-out: OVCAR3 IC50 of cell proliferation inhibitory activity
Description: as §3

Chain of CDK4/cyclin D1 (P11802 whole entry, species assumed): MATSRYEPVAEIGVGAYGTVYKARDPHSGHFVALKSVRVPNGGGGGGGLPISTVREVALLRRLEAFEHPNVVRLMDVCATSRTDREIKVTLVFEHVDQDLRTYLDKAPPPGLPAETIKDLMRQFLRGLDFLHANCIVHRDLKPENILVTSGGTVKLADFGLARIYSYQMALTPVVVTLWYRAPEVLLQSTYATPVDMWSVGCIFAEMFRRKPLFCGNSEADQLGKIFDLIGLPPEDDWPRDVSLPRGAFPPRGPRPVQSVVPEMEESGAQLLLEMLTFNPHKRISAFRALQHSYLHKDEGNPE
Chain of CDK4/cyclin D1 (P24385 whole entry partner, species assumed): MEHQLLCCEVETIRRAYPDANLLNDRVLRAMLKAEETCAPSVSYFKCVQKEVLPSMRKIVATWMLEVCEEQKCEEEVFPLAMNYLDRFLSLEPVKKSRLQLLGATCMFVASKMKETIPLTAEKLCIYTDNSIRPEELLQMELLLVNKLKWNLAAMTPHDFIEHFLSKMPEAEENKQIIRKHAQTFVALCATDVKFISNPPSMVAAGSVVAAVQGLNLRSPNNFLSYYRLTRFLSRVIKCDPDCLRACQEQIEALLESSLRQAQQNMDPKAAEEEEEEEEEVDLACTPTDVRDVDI
Chain of CDK9/cyclin T1 (P50750 whole entry, species assumed): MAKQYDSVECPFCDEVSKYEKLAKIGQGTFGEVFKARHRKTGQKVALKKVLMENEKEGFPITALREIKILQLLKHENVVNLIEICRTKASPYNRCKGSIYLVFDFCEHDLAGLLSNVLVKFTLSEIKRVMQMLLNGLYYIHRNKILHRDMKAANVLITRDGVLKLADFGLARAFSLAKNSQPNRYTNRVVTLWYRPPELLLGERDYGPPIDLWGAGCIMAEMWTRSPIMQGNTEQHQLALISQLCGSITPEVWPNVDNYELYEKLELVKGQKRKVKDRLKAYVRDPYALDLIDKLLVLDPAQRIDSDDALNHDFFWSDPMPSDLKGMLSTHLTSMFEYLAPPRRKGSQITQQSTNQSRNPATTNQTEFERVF
Chain of CDK9/cyclin T1 (O60563 whole entry partner, species assumed): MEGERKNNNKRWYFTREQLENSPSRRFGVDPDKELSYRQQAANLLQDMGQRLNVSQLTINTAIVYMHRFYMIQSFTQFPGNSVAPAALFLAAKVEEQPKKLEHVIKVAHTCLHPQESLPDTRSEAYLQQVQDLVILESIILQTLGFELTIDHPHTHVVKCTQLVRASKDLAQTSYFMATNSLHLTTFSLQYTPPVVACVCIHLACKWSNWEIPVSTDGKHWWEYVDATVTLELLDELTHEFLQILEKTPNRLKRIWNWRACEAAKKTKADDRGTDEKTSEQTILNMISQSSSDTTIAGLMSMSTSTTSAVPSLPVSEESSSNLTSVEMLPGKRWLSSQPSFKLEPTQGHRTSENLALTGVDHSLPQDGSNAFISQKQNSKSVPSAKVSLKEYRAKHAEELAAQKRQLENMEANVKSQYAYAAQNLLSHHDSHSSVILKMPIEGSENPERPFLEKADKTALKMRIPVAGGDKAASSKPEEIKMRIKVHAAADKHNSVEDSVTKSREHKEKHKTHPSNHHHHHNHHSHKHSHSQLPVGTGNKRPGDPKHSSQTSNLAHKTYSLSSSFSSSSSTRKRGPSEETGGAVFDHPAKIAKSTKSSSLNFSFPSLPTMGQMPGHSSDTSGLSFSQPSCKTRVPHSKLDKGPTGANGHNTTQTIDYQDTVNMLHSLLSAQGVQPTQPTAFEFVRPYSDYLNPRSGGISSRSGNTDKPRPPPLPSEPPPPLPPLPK
Chain of CDK6/cyclin D3 (Q00534 whole entry, species assumed): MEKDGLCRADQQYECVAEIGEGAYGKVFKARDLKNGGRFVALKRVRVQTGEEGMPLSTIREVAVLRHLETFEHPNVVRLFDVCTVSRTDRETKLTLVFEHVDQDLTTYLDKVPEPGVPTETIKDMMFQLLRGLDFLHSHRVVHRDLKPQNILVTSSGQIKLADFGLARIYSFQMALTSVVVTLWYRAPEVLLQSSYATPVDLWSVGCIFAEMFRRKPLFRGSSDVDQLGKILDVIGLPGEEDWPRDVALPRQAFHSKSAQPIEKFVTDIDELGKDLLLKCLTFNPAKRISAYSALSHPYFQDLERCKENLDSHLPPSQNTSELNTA
Chain of CDK6/cyclin D3 (P30281 whole entry partner, species assumed): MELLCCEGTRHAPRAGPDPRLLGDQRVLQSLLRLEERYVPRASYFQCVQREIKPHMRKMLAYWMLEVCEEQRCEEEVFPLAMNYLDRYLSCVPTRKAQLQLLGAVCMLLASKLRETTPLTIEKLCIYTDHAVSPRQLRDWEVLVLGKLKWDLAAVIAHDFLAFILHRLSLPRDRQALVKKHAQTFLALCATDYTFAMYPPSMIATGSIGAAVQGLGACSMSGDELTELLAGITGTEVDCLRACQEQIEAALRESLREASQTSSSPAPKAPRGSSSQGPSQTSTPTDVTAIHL

| Structure (SMILES) | IC50 (CDK2/cyclin E) [nM] | IC50 (CDK4/cyclin D1) [nM] | IC50 (CDK6/cyclin D3) [nM] | IC50 (CDK9/cyclin T1) [nM] | IC50 [1] [nM] | IC50 [2] [nM] | IC50 [3] [nM] | IC50 [4] [nM] |
| --- | --- | --- | --- | --- | --- | --- | --- | --- |
| C[C@@H](n1nnc2ccc3cnc(Nc4ccc(C(=O)N5CCS(=O)(=O)CC5)cc4)nc3c21)C(C)(C)O [Example I-59, (R)-(1,1-Dioxothiomorpholino)(4-((1-(3-hydroxy-3-methylbutan-2-yl)-1H-[1,2,3]triazolo[4,5-H]quinazolin-8-yl)amino)phenyl)methanone] | 1 | 2 | 15 | 46 | 18 | 543 | 127 | 389 |
| CN1CCCN(C(=O)c2ccc(Nc3ncc4ccc5nnn([C@@H]6CCC[C@@]6(C)O)c5c4n3)cc2)CC1 [Example I-70, (4-((1-((1,2R)-2-hydroxy-2-methylcyclopentyl)-1H-[1,2,3]triazolo[4,5-H]quinazolin-8-yl)amino)phenyl)(4-methyl-1,4-diazepan-1-yl)methanone] | 0.06 | 0.7 | 2 | 2 | 1 | 3 | 1 | 2 |
| CC(C)n1nnc2ccc3cnc(Nc4ccc(C(=O)N5CCNC(C)(C)C5)cc4)nc3c21 [Example I-22, (3,3-Dimethylpiperazin-1-yl)(4-((1-isopropyl-1H-[1,2,3]triazolo[4,5-H]quinazolin-8-yl)amino)phenyl)metha none] | 2 | 4 | 23 | 4 | 5 | 115 | 56 | 27 |
| CC(C)n1nnc2ccc3cnc(Nc4ccc(C(=O)N5CC[C@@H](N)C5)cc4)nc3c21 [Example I-5, (R)-(3-Aminopyrrolidin-1-yl)(4-((1-isopropyl-1H-[1,2,3]triazolo[4,5-H]quinazolin-8-yl)amino)phenyl)metha none] | 0.07 | 0.8 | 10 | 7 | 3 | 53 | 11 | 12 |
| C[C@@]1(O)CCC[C@H]1n1nnc2ccc3cnc(Nc4ccc(C(=O)N5CC[C@H](N)C5)cc4)nc3c21 [Example I-62, ((S)-3-Aminopyrrolidin-1-yl)(4-((1-((1R,2R)-2-hydroxy-2-methylcyclopentyl)-1H-[1,2,3]triazolo[4,5-H]quinazolin-8-yl)amino)phenyl)methanone] | 0.08 | 0.5 | 4 | 3 | 5 | 54 | 8 | 28 |
| CC(C)n1nnc2ccc3cnc(Nc4ccc(C(=O)N5CCN[C@@H](C)C5)cc4)nc3c21 [Example I-20, (S)-(4-((1-Isopropyl-1H-[1,2,3]triazolo[4,5-H]quinazolin-8-yl)amino)phenyl)(3-methylpiperazin-1-yl)methanone] | 1 | 1 | 16 | 3 | 6 | 109 | 23 | 39 |
| CN1CCN(C(=O)c2ccc(Nc3ncc4ccc5nnn([C@@H]6CCC[C@@]6(C)O)c5c4n3)cc2)CC1 [Example I-66, (4-((1-((1R,2R)-2-Hydroxy-2-methylcyclopentyl)-1H-[1,2,3]triazolo[4,5-H]quinazolin-8-yl)amino)phenyl)(4-methylpiperazin-1-yl)methanone] | 0.8 | 1 | 15 | 6 | 2 | 93 | 8 | 17 |
| C[C@H](CO)n1nnc2ccc3cnc(Nc4ccc(C(=O)N5CCOCC5)cc4)nc3c21 [Example I-51, (R)-(4-((1-(1-Hydroxypropan-2-yl)-1H-[1,2,3]triazolo[4,5-H]quinazolin-8-yl)amino)phenyl)(morpholino)methanone] | 2 | 7 | 149 | 122 | 51 | 441 | 100 | 301 |
| CC(C)n1nnc2ccc3cnc(Nc4ccc(C(=O)N5CCN(C)[C@@H](C)C5)cc4)nc3c21 [Example I-28, (S)-(3,4-Dimethylpiperazin-1-yl)(4-((1-isopropyl-1H-[1,2,3]triazolo[4,5-H]quinazolin-8-yl)amino)phenyl)metha none] | 2 | 2 | 18 |  | 9 | 174 | 42 | 59 |
| CC[C@H](Nc1nc(NCc2cnc(C)cc2C)c2ncn(C(C)C)c2n1)[C@@H](C)O [CYC-065 (Fadraciclib), reference compound] | 3 | 228 | > 1000 |  | 171 | 623 | 209 | 349 |
| CC(C)n1nnc2ccc3cnc(Nc4ccc(C(=O)N5CC[C@@H](C)[C@@H](N)C5)cc4)nc3c21 [Example I-12, ((3R,4R)-3-Amino-4-methylpiperidin-1-yl)(4-((1-isopropyl-1H-[1,2,3]triazolo[4,5-H]quinazolin-8-yl)amino)phenyl)metha none] | 1 | 3 | 18 |  | 6 | 84 | 30 | 26 |
| CC(C)n1nnc2ccc3cnc(Nc4ccc(C(=O)N5CC[C@H](N)[C@H](O)C5)cc4)nc3c21 [Example I-14, ((3R,4S)-4-Amino-3-hydroxypiperidin-1-yl)(4-((1-isopropyl-1H-[1,2,3]triazolo[4,5-H]quinazolin-8-yl)amino)phenyl)metha none] | 2 | 2 | 39 |  | 11 | 424 | 66 | 102 |
